Test results reported in ChEMBL document CHEMBL1139443, “Antitumor agents. Part 230: C4'-esters of GL-331 as cytotoxic agents and DNA topoisomerase II inhibitors” (Bioorg Med Chem Lett, 2004).

Assays:
KB [1] = assay: Lethal dose against KB-7d cells when treated for 30 min; NMD = not markedly different from control.; type: toxicity, cell-based; details: human, 0.5 h
KB [2] = assay: Effective dose required for inhibition of KB-7d cell replication after 3 days of continuous treatment; type: functional; details: Homo sapiens, 72 h, read-out: ED50 (the source's name)
KB [3] = assay: Compound was evaluated for cytotoxicity against KB-7d cells at 10 uM concentration; NMD = not markedly different from control.; type: functional, cell-based; details: Homo sapiens
KB [4] = assay: Compound was evaluated for cytotoxicity against KB cells at 10 uM concentration; type: functional; details: Homo sapiens
[5] = Lethal dose against KB cells when treated for 30 min; type: toxicity, cell-based; details: human, read-out: LD50
KB [6] = assay: Compound was evaluated for cytotoxicity against KB-7d cells at 10 uM concentration; type: functional; details: Homo sapiens
[7] = Lethal dose against KB-7d cells when treated for 30 min; type: toxicity, cell-based; details: human, read-out: LD50

SMILES | LD50 (KB [1]) | EC50 (KB [2]) | Cytotoxicity (KB [3]) | cytotoxicity at 10 µM (KB [4]) | CC50 at 0.5 h [5] | cytotoxicity at 10 µM (KB [6]) | CC50 at 0.5 h [7]
COc1cc([C@@H]2c3cc4c(cc3[C@@H](O[C@@H]3O[C@@H]5CO[C@@H](C)O[C@H]5[C@H](O)[C@H]3O)[C@H]3COC(=O)[C@H]23)OCO4)cc(OC)c1O [ETOPOSIDE] | Not Markedly Different | 11 µM | Not Markedly Different | 52% | 50 µM |  | 
COc1cc([C@@H]2c3cc4c(cc3[C@@H](Nc3ccc([N+](=O)[O-])cc3)[C@H]3COC(=O)[C@H]23)OCO4)cc(OC)c1OC(=O)C(F)(F)F |  | 1.5 µM |  | 62% | < 10 µM | 90% | < 10 µM
COc1cc([C@@H]2c3cc4c(cc3[C@@H](Nc3ccc([N+](=O)[O-])cc3)[C@H]3COC(=O)[C@H]23)OCO4)cc(OC)c1OC(=O)CCl |  | 2.3 µM |  | 43% | > 10 µM | 46% | > 10 µM
COc1cc([C@@H]2c3cc4c(cc3[C@@H](Nc3ccc([N+](=O)[O-])cc3)[C@H]3COC(=O)[C@H]23)OCO4)cc(OC)c1O |  | 1.5 µM |  | 66% | < 10 µM | 94% | < 10 µM
COc1cc([C@@H]2c3cc4c(cc3[C@@H](Nc3ccc([N+](=O)[O-])cc3)[C@H]3COC(=O)[C@H]23)OCO4)cc(OC)c1OC(C)=O |  | 2.9 µM |  | 28% | > 20 µM | 60% | < 10 µM
